Reference: patent US10111883B1, “Selective P2X3 modulators” (BELLUS Health inc., priority 2017, dated 2018)

What was measured:
[1] = test system: taste function; assay: Two bottle taste study (water vs quinine); type: in vivo, rat; conditions: 10 or 20 mg/kg intraperitoneally; for effect on taste function: rat; for quinine drunk relative to control: rats water-fasted overnight, volume measured for 15 minutes at Cmax
Experimental: A rat taste model was used to compare the effect of Compound 1 on taste function with that of AF-219. Animals were water-fasted overnight and presented with one bottle of water and one bottle of (bitter-tasting) quinine at the time corresponding to the maximum plasma concentration of study drugs; and the volume of liquid consumed from each bottle was measured for 15 minutes. Treatments (control, Compound 1 (10 or 20 mg/kg) or AF-219 (10 or 20 mg/kg)) were administered intraperitoneally in two groups of 10 rats.

[2] = test system: guinea pig cough model (citric acid and histamine); assay: Guinea pig cough response model (dose response); type: in vivo; conditions: for reduction in cough vs. control: 2 hours prior to citric acid and histamine, coughs counted 15 minutes, statistically significant; for reduction in cough frequency as compared to the control (dose dependence): 0.3, 3 and 30 mg/kg oral
Text: The anti-tussive effect of Compound 1 was compared to that of AF-219 in a guinea pig cough model. Guinea pigs are the most commonly used animal in cough studies for both the investigation of the cough reflex at a fundamental level and for use as an antitussive screen (Mackensie et al., Drug Discovery Today, 2004, 1, 297-302). In the guinea pig, it was shown that exposure to ATP and histamine aerosols increases cough responses to tussive stimuli via P2X3 receptor-mediated mechanisms (Kamei et al., Eur J Pharmacol (2005) 528: 158-161; Kamei et al., Eur J Pharmacol (2006) 547: 160-164).
(§1) Treatments (control, Compound 1 (0.3, 3 and 30 mg/kg) or AF-219 (0.3, 3 or 30 mg/kg)) were administered orally in seven groups of 6 animals 2 hours prior to tussive agent exposure (citric acid and histamine) and the number of coughs were counted for a period of 15 minutes.

[3] = test system: guinea pig cough model (citric acid and histamine); assay: Time course study in guinea pig cough response model; type: in vivo; conditions: single oral 30 mg/kg; for anti-tussive effect (significance): 8 hours post-dose
Experimental: as §1
Using the same guinea pig cough model as described in Example 2, a time course study was conducted to assess the duration of the anti-tussive effect of Compound 1 and AF-219 following the administration of a single oral 30 mg/kg dose. In this study, animals in groups of 6 were exposed to tussive agents (citric acid and histamine) at various times after the administration of the study drugs (2, 4, 6, 8 and 12 hours post-dose for Compound 1; and 2 and 8 hours post-dose for AF-219) and the number of coughs were measured for 15 minutes.

[4] = test system: P2X3 and P2X2/P2X3 channel; assay: Fluo-8 calcium assay, antagonism of P2X3 versus P2X2/P2X3 channels in HEK293 cells; type: cell-based; conditions: human P2X3 and P2X2/P2X3 in HEK293 cells, meATP stimulation; IC50s only in FIG. 3
Experimental: The ability of the compounds described herein and Gefapixant (also known as AF-219) to act as an antagonist of the P2X3 and P2X2/P2X3 channel (encoded by the human P2RX2 and P2RX3 genes, stably expressed in HEK293 cells) was evaluated with a Fluo-8 calcium kit. Compounds 1, 2, 9, 11, 15, and AF-219 were evaluated at twelve concentrations.
For the antagonist effect assessment, the cells were pre-incubated with Compounds 1, 2, 9, 11, 15, and AF-219 for 20 minutes, then stimulated with the P2X3 and P2X2/P2X3 agonist α,β-methyleneATP (meATP) at final concentrations of 3 μM and 30 μM. Four minutes fifty seconds after addition of meATP, ionomycin was added at a final concentration of 5 μM in order to obtain the maximum calcium influx and fluorescence signal possible from the cells. Fluorescence was recorded continuously for 10 minutes, starting 10 seconds prior to the addition of meATP.

Row | Structure (SMILES) | effect on taste function [1] | quinine drunk relative to control [1] | reduction in cough vs. control ([2]; 30 mg/kg oral) [%] | reduction in cough frequency as compared to the control (dose dependence) [2] | duration of anti-tussive effect [3] | reduction in cough frequency compared to control (significance) ([3]; 2 hours post-dose) | anti-tussive effect (significance) [3] | selectivity as P2X3 antagonist (P2X3 versus P2X2/3) [4] | other results
1 | COc1cc(C(C)C)c(Oc2cnc(N)nc2N)cc1S(N)(=O)=O [AF-219, Gefapixant, reference compound] | altered taste function | approximately 5 times | 45 | comparable dose-dependent reduction in cough frequency | comparable duration of effect | statistically significant | no longer significant |  | 
2 | CNC(=O)c1cc(F)c(-c2nc3cc(Cl)ccn3c2C[C@H]2CN(C(C)=O)CCO2)c(F)c1 [Compound 15] |  |  |  |  |  |  |  | selective P2X3 antagonists | 
3 | CNC(=O)c1ccc(-c2nc3cc(Cl)ccn3c2C[C@H]2CN(C(C)=O)CCO2)c(C)c1 [Compound 11] |  |  |  |  |  |  |  | selective P2X3 antagonists | 
4 | CNC(=O)c1cc(F)c(-c2nc3cc(C)ccn3c2C[C@H]2CN(C(=O)OC)CCO2)c(F)c1 [Compound 1] | did not | did not drink more quinine than the control animals | 52 | comparable dose-dependent reduction in cough frequency | comparable duration of effect | statistically significant | no longer significant | selective P2X3 antagonists | reduction in cough vs. control ([2]; 3 mg/kg oral): 39%; reduction in cough frequency compared to control (significance) ([3]; 4 hours post-dose): statistically significant; reduction in cough frequency compared to control (significance) ([3]; 6 hours post-dose): statistically significant
5 | CNC(=O)c1cc(F)c(-c2nc3cc(C)ccn3c2C[C@H]2CN(C(C)=O)CCO2)cc1F [Compound 9] |  |  |  |  |  |  |  | selective P2X3 antagonists | 
6 | CCC(=O)N1CCO[C@@H](Cc2c(-c3c(F)cc(C(=O)NC)cc3F)nc3cc(C)ccn23)C1 [Compound 2] |  |  |  |  |  |  |  | selective P2X3 antagonists | 
